Reference: patent publication US8772307B2, “Substituted spiro compounds and their use for producing pain-relief medicaments” (Gruenenthal GmbH, priority 2005, dated 2014)

Columns and labels:
[1] = biological target: T1, rat-species vanilloid receptor 1 (VR1/TRPV1) (Rattus norvegicus, UniProt O35433); test: Functional testing on vanilloid receptor 1 (VR1/TRPV1): FLIPR Ca2+ inflow assay in rat dorsal root ganglia cells (% activation / % inhibition vs capsaicin); format: cell-based; conditions: for inhibition at 10 µM: inhibition compared to 10 μM CP (capsaicin); for activation at 10 µM: stimulation compared to 10 μM CP (capsaicin)
T1 construct: endogenous in cells; host or cells: primary cells dissociated from rat dorsal root ganglia (DRG)
T1 sequence (O35433 whole entry): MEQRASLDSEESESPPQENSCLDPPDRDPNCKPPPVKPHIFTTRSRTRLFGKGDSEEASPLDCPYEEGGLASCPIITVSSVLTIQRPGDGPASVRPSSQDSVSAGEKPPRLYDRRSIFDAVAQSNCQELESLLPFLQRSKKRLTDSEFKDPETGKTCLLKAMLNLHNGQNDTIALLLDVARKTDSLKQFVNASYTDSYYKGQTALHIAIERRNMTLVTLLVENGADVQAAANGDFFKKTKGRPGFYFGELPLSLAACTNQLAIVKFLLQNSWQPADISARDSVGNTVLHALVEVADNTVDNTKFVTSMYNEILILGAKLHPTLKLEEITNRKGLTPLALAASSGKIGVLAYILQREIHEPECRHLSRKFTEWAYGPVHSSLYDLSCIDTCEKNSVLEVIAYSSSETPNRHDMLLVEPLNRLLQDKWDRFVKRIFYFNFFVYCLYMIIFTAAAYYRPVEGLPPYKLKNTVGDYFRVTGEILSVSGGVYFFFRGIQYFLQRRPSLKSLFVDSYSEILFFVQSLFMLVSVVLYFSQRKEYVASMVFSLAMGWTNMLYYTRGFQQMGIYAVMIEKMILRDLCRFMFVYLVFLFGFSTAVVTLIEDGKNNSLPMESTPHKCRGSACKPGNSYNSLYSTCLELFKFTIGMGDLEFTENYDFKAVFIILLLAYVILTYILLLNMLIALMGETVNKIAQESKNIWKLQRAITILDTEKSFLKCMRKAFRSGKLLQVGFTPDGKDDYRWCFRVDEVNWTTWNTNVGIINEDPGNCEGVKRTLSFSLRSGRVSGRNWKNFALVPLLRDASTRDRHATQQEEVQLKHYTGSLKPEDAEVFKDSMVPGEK
Method: Preference may also be given to substituted spiro compounds according to the invention of general formula I which in a FLIPR assay in a concentration of 10 μM display inhibition of the Ca^2+ ion inflow in dorsal root ganglia of rats of at least 30%, preferably of at least 40%, particularly preferably of at least 50%, most particularly preferably of at least 70%, even more preferably of at least 90%, compared to the maximum achievable inhibition of the Ca^2+ ion inflow with capsaicin in a concentration of 10 μM.
In the FLIPR assay, the Ca^2+ inflow is quantified using a Ca^2+-sensitive dye (type Fluo-4, Molecular Probes Europe BV, Leiden, Netherlands) in a fluorescent imaging plate reader (FLIPR, Molecular Devices, Sunnyvale, USA), as described hereinafter.
I. Functional Testing Carried Out on the Vanilloid Receptor 1 (VR1/TRPV1 Receptor)
(§1) The agonistic or antagonistic effect of the substances to be tested can be determined on the rat-species vanilloid receptor 1 (VR1/TRPV1) using the following assay. According to this assay, the Ca^2+ inflow is quantified through the receptor channel using a Ca^2+-sensitive dye (type Fluo-4, Molecular Probes Europe BV, Leiden, Netherlands) in a fluorescent imaging plate reader (FLIPR, Molecular Devices, Sunnyvale, USA).
Complete medium: 50 mL HAMS F12 nutrient mixture (Gibco Invitrogen GmbH, Karlsruhe, Germany) with
10% by volume of FCS (foetal calf serum, Gibco Invitrogen GmbH, Karlsruhe, Germany, […]);
2 mM L-glutamine (Sigma, Munich, Germany);
1% by weight of AA solution (antibiotic/antimyotic solution, PAA, Pasching, Austria)
and 25 ng/ml NGF medium (2.5 S, Gibco Invitrogen GmbH, Karlsruhe, Germany)
Cell culture plate: Poly-D-lysine-coated, black 96 well plates having a clear base (96 well black/clear plate, BD Biosciences, Heidelberg, Germany) were additionally coated with laminin (Gibco Invitrogen GmbH, Karlsruhe, Germany), the laminin being diluted with PBS (Ca—Mg-free PBS, Gibco Invitrogen GmbH, Karlsruhe, Germany) to a concentration of 100 μg/mL. Aliquots having a laminin concentration of 100 μg/mL were removed and stored at −20° C. The aliquots were diluted with PBS in a ratio of 1:10 to 10 μg/mL laminin and in each case 50 μL of the solution were pipetted into a recess in the cell culture plate. The cell culture plates were incubated for at least two hours at 37° C., the excess solution was removed by suction-filtration and the recesses were each washed twice with PBS. The coated cell culture plates were stored with excess PBS which was not removed until just before the feeding of the cells.
Preparation of the Cells:
The vertebral column was removed from decapitated rats and placed immediately into cold HBSS buffer (Hank's buffered saline solution, Gibco Invitrogen GmbH, Karlsruhe, Germany), i.e. buffer located in an ice bath, mixed with 1% by volume (percent by volume) of an AA solution (antibiotic/antimyotic solution, PAA, Pasching, Austria). The vertebral column was cut longitudinally and removed together with fasciae from the vertebral canal. Subsequently, the dorsal root ganglia (DRG) were removed and again stored in cold HBSS buffer mixed with 1% by volume of an AA solution. The DRG, from which all blood remnants and spinal nerves had been removed, were transferred in each case to 500 μL of cold type 2 collagenase (PAA, Pasching, Austria) and incubated for 35 minutes at 37° C. After the addition of 2.5% by volume of trypsin (PAA, Pasching, Austria), incubation was continued for 10 minutes at 37° C. After complete incubation, the enzyme solution was carefully pipetted off and 500 μL of complete medium were added to each of the remaining DRG. The DRG were in each case suspended several times, drawn through cannulae No. 1, No. 12 and No. 16 using a syringe and transferred to a 50 mL Falcon tube which was filled up to 15 mL with complete medium. […]

[2] = biological target: T2, vanilloid receptor (VR1) (Homo sapiens, UniProt Q8NER1); test: Functional testing on vanilloid receptor (VR1): FLIPR Ca2+ inflow assay in CHO K1 cells stably transfected with the VR1 gene; format: cell-based; conditions: for inhibition at 10 µM: CHO-K1, inhibition compared to 10 μM CP (capsaicin); for activation at 10 µM: CHO-K1, stimulation compared to 10 μM CP (capsaicin)
T2 construct: expressed in transfected cells; host or cells: CHO K1 cells (ECACC), stably transfected
T2 sequence (Q8NER1 whole entry): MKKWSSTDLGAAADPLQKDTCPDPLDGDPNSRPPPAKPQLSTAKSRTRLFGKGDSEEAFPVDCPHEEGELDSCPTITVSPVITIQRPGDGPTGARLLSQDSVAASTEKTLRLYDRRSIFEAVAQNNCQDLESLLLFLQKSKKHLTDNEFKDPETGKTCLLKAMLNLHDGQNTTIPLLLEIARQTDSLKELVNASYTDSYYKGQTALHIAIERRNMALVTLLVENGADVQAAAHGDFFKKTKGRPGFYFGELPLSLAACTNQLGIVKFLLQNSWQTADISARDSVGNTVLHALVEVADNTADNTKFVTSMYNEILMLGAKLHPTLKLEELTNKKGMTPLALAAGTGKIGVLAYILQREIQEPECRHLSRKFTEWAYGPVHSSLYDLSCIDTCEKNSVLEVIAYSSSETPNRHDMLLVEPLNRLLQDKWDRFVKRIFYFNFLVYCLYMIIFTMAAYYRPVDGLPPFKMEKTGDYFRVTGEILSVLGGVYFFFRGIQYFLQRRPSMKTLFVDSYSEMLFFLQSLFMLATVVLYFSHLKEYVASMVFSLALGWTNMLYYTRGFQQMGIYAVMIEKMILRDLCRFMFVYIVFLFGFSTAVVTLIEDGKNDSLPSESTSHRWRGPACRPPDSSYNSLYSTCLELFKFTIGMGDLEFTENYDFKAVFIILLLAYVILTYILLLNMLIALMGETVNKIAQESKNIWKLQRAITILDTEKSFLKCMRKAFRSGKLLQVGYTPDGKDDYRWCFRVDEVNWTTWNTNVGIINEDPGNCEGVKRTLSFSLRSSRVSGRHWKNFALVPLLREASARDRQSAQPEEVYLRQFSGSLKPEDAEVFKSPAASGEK
Source text: II. Functional Testing Carried Out on the Vanilloid Receptor (VR1)
as §1, with “can also” for “can”, “the” for “the rat-species”, “(VR1)” for “1 (VR1/TRPV1)”, “the” for “the receptor”
Chinese hamster ovary cells (CHO K1 cells, European Collection of Cell Cultures (ECACC) United Kingdom) were stably transfected with the VR1 gene. For functional testing, these cells were plated out on poly-D-lysine-coated black 96 well plates having a clear base (BD Biosciences, Heidelberg, Germany) at a density of 25,000 cells/well. The cells were incubated overnight at 37° C. and 5% CO2 in a culture medium (Ham's F12 nutrient mixture, 10% by volume of FCS (foetal calf serum), 18 μg/ml L-proline). The next day the cells were incubated with Fluo-4 (Fluo-4 2 μM, 0.01% by volume of Pluronic F127, Molecular Probes in HBSS (Hank's buffered saline solution), Gibco Invitrogen GmbH, Karlsruhe, Germany) for 30 minutes at 37° C. Subsequently, the plates were washed 3 times with HBSS buffer and after further incubation for 15 minutes at room temperature used for Ca^2+ measurement in a FLIPR assay. The Ca^2+-dependent fluorescence was measured before and after the addition of the substances to be tested (λex wavelength=488 nm, λem=540 nm). Quantification was carried out by measuring the highest fluorescence intensity (FC, Fluorescence Counts) over time.
The FLIPR protocol consists of 2 substance additions. First the compounds to be tested (10 μM) were pipetted onto the cells and the Ca^2+ inflow was compared with the control (capsaicin 10 μM) (% activation based on the Ca^2+ signal after the addition of 10 μM capsaicin). After 5 minutes' incubation, 100 nM of capsaicin were administered and the Ca^2+ inflow was also determined.
Desensitising agonists and antagonists led to suppression of the Ca^2+ inflow. The % inhibition was calculated compared to the maximum achievable inhibition with 10 μM of capsaicin.

Compound | inhibition at 10 µM [1] [%] | activation at 10 µM [1] [%] | inhibition at 10 µM [2] [%] | activation at 10 µM [2] [%]
CCc1ccc(NC(=O)N2CCC3(CC2)CC(c2ccc(C(F)(F)F)cc2)=NO3)cc1 [Compound 167, 3-(4-trifluoromethylphenyl)-1-oxa-2,8-diazaspiro[4.5]dec-2-ene-8-carboxylic acid-(4-ethylphenyl)amide] | 47.4 | -0.43 | 17.5 | 0.06
COc1cccc(C2=NOC3(CCN(C(=O)Nc4cccc(F)c4)CC3)C2)c1 [Compound 174, 3-(3-methoxyphenyl)-1-oxa-2,8-diazaspiro[4.5]dec-2-ene-8-carboxylic acid-(3-fluorophenyl)amide] | 47.8 | -0.28 | -25 | 5.9
COc1cccc(C2=NOC3(CCN(C(=O)Nc4cccc(Br)c4)CC3)C2)c1 [Compound 192, 3-(3-methoxyphenyl)-1-oxa-2,8-diazaspiro[4.5]dec-2-ene-8-carboxylic acid-(3-bromophenyl)amide] | 52.1 | -0.07 | -6.74 | -0.04
O=C(Nc1cccc(Br)c1)N1CCC2(CC1)CC(c1ccccc1)=NO2 [Compound 193, 3-phenyl-1-oxa-2,8-diazaspiro[4.5]dec-2-ene-8-carboxylic acid-(3-bromophenyl)amide] | 43.6 | -0.17 | -2.64 | 0.11
O=C(Nc1ccc(Br)cc1)N1CCC2(CC1)CC(c1ccccc1)=NO2 [Compound 197, 3-phenyl-1-oxa-2,8-diazaspiro[4.5]dec-2-ene-8-carboxylic acid-(4-bromophenyl)amide] | 59.9 | -0.35 | -17.2 | 0.06
COc1ccccc1NC(=O)N1CCC2(CC1)CC(c1ccc(C(C)(C)C)cc1)=NO2 [Compound 201, 3-(4-tert-butylphenyl)-1-oxa-2,8-diazaspiro[4.5]dec-2-ene-8-carboxylic acid-(2-methoxyphenyl)amide] | 54.2 | -0.43 | -0.7 | 8.56
COc1cccc(NC(=O)N2CCC3(CC2)CC(c2ccccc2)=NO3)c1 [Compound 205, 3-phenyl-1-oxa-2,8-diazaspiro[4.5]dec-2-ene-8-carboxylic acid-(3-methoxyphenyl)amide] | 39.9 | 0.15 | -23.9 | 0.33
COc1cccc(C2=NOC3(CCN(C(=O)Nc4ccc(C(F)(F)F)cc4)CC3)C2)c1 [Compound 210, 3-(3-methoxyphenyl)-1-oxa-2,8-diazaspiro[4.5]dec-2-ene-8-carboxylic acid-(4-trifluoromethylphenyl)amide] | 98 | 0.22 | 7.12 | -0.21
O=C(Nc1ccc(C(F)(F)F)cc1)N1CCC2(CC1)CC(c1ccccc1)=NO2 [Compound 211, 3-phenyl-1-oxa-2,8-diazaspiro[4.5]dec-2-ene-8-carboxylic acid-(4-trifluoromethylphenyl)amide] | 97.5 | 0.33 | 9.23 | -0.18
O=C(Nc1ccc(C(F)(F)F)cc1)N1CCC2(CC1)CC(c1ccc(Cl)cc1)=NO2 [Compound 212, 3-(4-chlorophenyl)-1-oxa-2,8-diazaspiro[4.5]dec-2-ene-8-carboxylic acid-(4-trifluoromethylphenyl)amide] | 61.9 | -0.43 | -16.1 | -0.21
COc1cccc(C2=NOC3(CCN(C(=O)Nc4cc(C(F)(F)F)ccc4Cl)CC3)C2)c1 [Compound 221, 3-(3-methoxyphenyl)-1-oxa-2,8-diazaspiro[4.5]dec-2-ene-8-carboxylic acid-(2-chloro-5-trifluoromethylphenyl)amide] | 72.8 | 0.95 | -11.6 | -0.04
Cc1ccc(C2=NOC3(CCN(C(=O)Nc4cc(C(F)(F)F)ccc4Cl)CC3)C2)cc1 [Compound 225, 3-p-tolyl-1-oxa-2,8-diazaspiro[4.5]dec-2-ene-8-carboxylic acid-(2-chloro-5-trifluoromethylphenyl)amide] | 47.8 | -0.47 | -4.5 | 0.31
Cc1ccc(C2=NOC3(CCN(C(=O)Nc4ccc(Cl)c(C(F)(F)F)c4)CC3)C2)cc1 [Compound 236, 3-p-tolyl-1-oxa-2,8-diazaspiro[4.5]dec-2-ene-8-carboxylic acid-(4-chloro-3-trifluoromethylphenyl)amide] | 45.1 | -0.47 | -10.3 | -0.28
COc1cccc(C2=NOC3(CCN(C(=O)Nc4ccc(OC(F)(F)F)cc4)CC3)C2)c1 [Compound 244, 3-(3-methoxyphenyl)-1-oxa-2,8-diazaspiro[4.5]dec-2-ene-8-carboxylic acid-(4-trifluoromethoxyphenyl)amide] | 89.1 | 9.79 | 3.09 | -0.28
O=C(Nc1ccc(OC(F)(F)F)cc1)N1CCC2(CC1)CC(c1ccccc1)=NO2 [Compound 245, 3-phenyl-1-oxa-2,8-diazaspiro[4.5]dec-2-ene-8-carboxylic acid-(4-trifluoromethoxyphenyl)amide] | 99 | 2.55 | 11 | 0.28
